# Laboratory results: patent US9115061B2, “Naphthalene-based inhibitors of anti-apoptotic proteins” (BURNHAM INSTITUTE FOR MEDICAL RESEARCH, priority 2007, dated 2015)
# Like-named read-outs stand apart in the source and are kept apart here.
# Experiments:
# BCL-XL [1] = target: T1, BCL-XL (Homo sapiens (Human), UniProt Q07817); assay: 1D 1H-NMR binding assay; settings: 4-point-rating scale; compounds 200 μM, BCL-XL 25 μM; also: key: +++: Very Active; ++: Active; +: Mild; −: Weak
# Protocol: By observing the aliphatic region of the spectra, binding could be readily detected due to chemical shift changes in active site methyl groups of Ile, Leu, Thr, Val or Ala (region between −0.8 and 0.3 ppm). All experiments were performed with a 600 MHz spectrometer Bruker Avance 600 equipped with four rf channels and z-axis pulse-field gradients.
# Plasma stability = assay type: in vitro ADME, rat; settings: rat plasma, 1 h, 37.5° C.
# Protocol: A 20 μL aliquot of a 10 mM solution in DMSO of the test compound was added to […] of heparinized rat plasma (Lampire, P1-150N) to obtain a 100 μM final solution. The mixture was incubated for 1 h at 37.5° C. Aliquots of 100 μL were taken (0, 30 min, 1 h) and diluted with 200 μL of MeOH containing internal standard.
# [2] = Liver microsomal stability; settings: for Microsomal Stability (T = 1 hr): rat liver microsomes, 4 μM, 60 min; for microsomal stability compared to apogossypol: rat microsomal preparations
# Protocol: Pooled rat liver microsomes (BD Biosciences, #452701) were preincubated with test compounds at 37.5° C. for 5 min in the absence of NADPH. The reaction was initiated by addition of NADPH and then incubated under the same conditions. […] One aliquot (100 μL) of the incubation mixture was withdrawn at 0, 15, 30, and 60 min and combined immediately with 200 μL of ACN/MeOH containing an internal standard. After mixing, the sample was centrifuged at approximately 13,000 rpm for 12 min. The supernatant was transferred into an autosampler vial and the amount of test compound was quantified using the Shimadzu LCMS 2010EV mass spectrometer. The change of the AUC (area under the curve) of the parent compound as function of time was used as a measure of microsomal stability.
# [3] = PAMPA (parallel artificial membrane permeation assay); settings: PAMPA, pH 7.2, 8 h
# Protocol: PAMPA is parallel artificial membrane permeation assay. A 96-well microtiter plate (Millipore, # MSSACCEPTOR) was completely filled with aqueous buffer solution (pH 7.2) and covered with a microtiter filterplate (Millipore, # MAPBMN310). The hydrophobic filter material was impregnated with a 10% solution of hexadecane in hexane and the organic solvent was allowed to completely evaporate. Permeation studies were started by the transfer of 200 μL of a 100 μM test compound solution on top of the filterplate. In general phosphate buffer at pH 7.2 buffer was used. The maximum DMSO content of the stock solutions was <5%. In parallel, an equilibrium solution lacking a membrane was prepared using the exact concentrations and specifications but lacking the membrane. The concentrations of the acceptor and equilibrium solutions were determined using the Shimadzu LCMS-2010EV and AUC methods. The permeation of a compound through the membrane layer is described by the percentage permeation (% flux). The flux values were calculated considering the concentration of the acceptor compartment after 8 h and that of a reference well with the same concentration containing no membrane barrier.
# H460 cell line = assay: Cell viability, ATP-LITE assay; assay type: cell-based, human
# Protocol: (§1) The activity of the compounds against human cancer cell lines (PC3ML, H460, H1299, RS11846) were assessed by using the ATP-LITE assay (PerkinElmer). All cells were seeded in either F12 or RPMI1640 medium with 5 mM L-glutamine supplemented with 5% fetal bovine serum (Mediatech Inc.), penicillin and streptomycin (Omega). For maintenance, cells were cultured in 5% FBS. Cells plated into 96 well plates at varying initial densities depending on doubling time. H460 and H1299 plated at 2000 cells/well, A549 and PC3 at 3000 cells/well, and RS118456S at 10,000 cells/well. Compounds were diluted to final concentrations with 0.1% DMSO. Prior to dispensing compounds onto cells, fresh 5% media was placed into wells. Administration of compounds occurred 24 hours after seeding into the fresh media. Cell viability was evaluated using ATP-LITE reagent (PerkinElmer) after 72 hours of treatment. Data were normalized to the DMSO control-treated cells using Prism version 5.01 (Graphpad Software).
# RS11846 cell line = assay: Apoptosis, Annexin V and propidium iodide assay; assay type: cell-based, human
# Protocol: The apoptotic activity of the compounds against RS11846 cells was assessed by staining with Annexin V- and propidium iodide (PI). Lymphoma cell line, RS11846, was cultured in RPMI 1640 medium (Mediatech Inc., Herndon, Va. 20171) containing 10% fetal bovine serum (Mediatech Inc., Herndon, Va. 20171) and Penicillin/Streptomycin (Mediatech Inc., Herndon, Va. 20171). […] The percentage of viable cells was determined by FITC-Annexin V- and propidium iodide (PI)-labeling, using an Apoptosis Detection kit (BioVision Inc.), and analyzing stained cells by flow cytometry (FACSort; Bectin-Dickinson, Inc.; Mountain View, Calif.). Cells that were annexin-V-negative and PI-negative were considered viable.
# GST-Mcl-1 = GST-Mcl-1 (Homo sapiens (Human), UniProt Q07820); assay: Fluorescence polarization assay (FITC-Bim BH3 peptide); assay type: binding; settings: read-out: EC50 FPA Mcl-1
# Chain of GST-Mcl-1 (Q07820 whole entry): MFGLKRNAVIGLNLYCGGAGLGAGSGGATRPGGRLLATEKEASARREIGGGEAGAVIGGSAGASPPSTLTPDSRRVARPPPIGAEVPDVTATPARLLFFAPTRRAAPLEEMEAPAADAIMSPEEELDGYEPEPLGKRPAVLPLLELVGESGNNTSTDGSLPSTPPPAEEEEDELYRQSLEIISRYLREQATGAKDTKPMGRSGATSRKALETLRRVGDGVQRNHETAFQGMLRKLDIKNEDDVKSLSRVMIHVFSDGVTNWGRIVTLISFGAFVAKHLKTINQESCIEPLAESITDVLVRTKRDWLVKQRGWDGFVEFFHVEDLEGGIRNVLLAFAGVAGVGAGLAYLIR
# Protocol: (§2) After 30 min incubation at room temperature, the polarization values in millipolarization units were measured at excitation/emission wavelengths of 480/535 nm with a multilabel plate reader (PerkinElmer). IC50 was determined by fitting the experimental data to a sigmoidal dose-response nonlinear regression model (SigmaPlot 10.0.1, Systat Software, Inc., San Jose, Calif., USA). Data reported are mean of three independent experiments ±standard error (SE). […] Fluorescence polarization was measured after 10 min.
# GST-BCL-2 = GST-BCL-2 (Homo sapiens (Human), UniProt P10415); assay: as above; assay type: binding; settings: read-out: EC50 FPA BCL-2
# Chain of GST-BCL-2 (P10415 whole entry): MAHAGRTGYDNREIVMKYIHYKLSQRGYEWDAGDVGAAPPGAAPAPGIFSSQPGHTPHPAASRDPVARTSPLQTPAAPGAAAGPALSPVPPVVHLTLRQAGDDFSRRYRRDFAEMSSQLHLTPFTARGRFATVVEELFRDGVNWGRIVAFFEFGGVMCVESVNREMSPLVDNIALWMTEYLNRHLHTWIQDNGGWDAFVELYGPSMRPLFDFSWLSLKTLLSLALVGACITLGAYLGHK
# Protocol: as §2, with “(SE). Performance of BCL-2 and Mcl-1 FPA are similar.” for “(SE).”
# BCL-XL [4] = target: T1, BCL-XL; assay: Isothermal titration calorimetry (ITC); assay type: binding; settings: 25° C., pH 7.4
# Protocol: Titrations were performed using a VP-ITC or ITC200 calorimeter from Microcal (Northampton, Mass.). BCL-XL was used at concentrations between 25 and 100 μM in 20 mM sodium phosphate buffer (pH 7.4) and 5-10% DMSO. Titrants were used at concentrations 10-15× of the protein in the same buffer. Titrations were carried out at 25° C. Data were analyzed using Microcal Origin software provided by the ITC manufacturer (Microcal, Northampton, Mass.).
# GST-BCL-XL ΔTM protein = GST-BCL-XL ΔTM protein (Homo sapiens (Human), UniProt Q07817); assay: Competitive fluorescence polarization assay (FITC-Bak BH3 peptide); assay type: binding
# Chain of GST-BCL-XL ΔTM protein (Q07817 1-209): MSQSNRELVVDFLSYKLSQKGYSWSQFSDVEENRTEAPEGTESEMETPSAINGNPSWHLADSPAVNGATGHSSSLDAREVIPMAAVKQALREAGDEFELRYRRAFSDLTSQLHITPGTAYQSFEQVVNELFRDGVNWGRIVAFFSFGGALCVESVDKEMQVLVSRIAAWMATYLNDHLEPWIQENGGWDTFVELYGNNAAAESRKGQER
# Protocol: For competitive binding assays, 100 nM GST-BCL-XL ΔTM protein was preincubated with the tested compound at varying concentrations in 47.5 μL PBS (pH=7.4) in 96-well black plates at room temperature for 10 min, then 2.5 μL of 100 nM FITC-labeled Bak BH3 peptide was added to produce a final volume of 50 μL. The wild-type and mutant Bak BH3 peptides were included in each assay plate as positive and negative controls, respectively.
# IC50 was determined by fitting the experimental data to a sigmoidal dose-response nonlinear regression model (SigmaPlot 10.0.1, Systat Software, Inc., San Jose, Calif., USA). Data reported are mean of three independent experiments ±standard error (SE). […] Fluorescence polarization was measured after 10 min.
# PC3ML cells = assay: Cell viability, ATP-LITE assay; assay type: cell-based, human; settings: 72 hours, ATP-LITE
# Protocol: as §1
# [5] = 1-2 days; read-out: RS11846 EC50 (Annexin V- and propidium iodide assay)
# T1 sequence (Q07817 whole entry): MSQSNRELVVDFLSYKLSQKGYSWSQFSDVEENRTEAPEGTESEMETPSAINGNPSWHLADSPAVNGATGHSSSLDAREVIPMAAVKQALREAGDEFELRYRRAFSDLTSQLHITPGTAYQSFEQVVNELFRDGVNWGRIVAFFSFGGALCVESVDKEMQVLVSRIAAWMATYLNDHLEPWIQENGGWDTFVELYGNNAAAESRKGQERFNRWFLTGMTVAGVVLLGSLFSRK
SMILES,1D 1H-NMR Binding Assay (BCL-XL) (BCL-XL [1]),Plasma Stability (T = 1 hr) (Plasma stability) [%],Cell Permeability [3],also measured
"Cc1cc2cc(O)c(O)cc2c(O)c1-c1c(C)cc2cc(O)c(O)cc2c1O [Compound II, 3,3′-dimethyl-2,2′-binaphthyl-1,1′,6,6′,7,7′-hexaol]",+,,,
"Cc1cc2c(C(=O)C(C)C)c(O)c(O)cc2c(O)c1-c1c(C)cc2c(C(=O)C(C)C)c(O)c(O)cc2c1O [Compound III, 1,1′-(1,1′6,6′,7,7′-hexahydroxy-3,3′-dimethyl-2,2′-binaphthyl-5,5′-diyl)bis(2-methylpropan-1-one)]",++,,,
"Cc1cc2c(C(=O)c3ccc(-c4ccccc4)cc3)c(O)c(O)cc2c(O)c1-c1c(C)cc2c(C(=O)c3ccc(-c4ccccc4)cc3)c(O)c(O)cc2c1O [Compound IX, (1,1′,6,6′,7,7′-hexahydroxy-3,3′-dimethyl-2,2′-binaphthyl-5,51-diyl)bis(biphenyl-4-ylmethanone)]",−,,,
"CCCCC(CC)CC(=O)c1c(O)c(O)cc2c(O)c(-c3c(C)cc4c(C(=O)CC(CC)CCCC)c(O)c(O)cc4c3O)c(C)cc12 (centres unmarked) [Compound V, 1,1′-(1,1′,6,6′,7,7′-hexahydroxy-3,3′-dimethyl-2,2′-binaphthyl-5,5′-diyl)bis(3-ethylheptan-1-one)]",+,,,
"Cc1cc2c(C(=O)C3CCCC3)c(O)c(O)cc2c(O)c1-c1c(C)cc2c(C(=O)C3CCCC3)c(O)c(O)cc2c1O [Compound VI, (1,1′,6,6′,7,7′-hexahydroxy-3,3′-dimethyl-2,2′-binaphthyl-5,5′-diyl)bis(cyclopentylmethanone)]",+,79,Low,Microsomal Stability (T = 1 hr) [2]: 27%; microsomal stability compared to apogossypol [2]: degraded faster than apogossypol
"Cc1cc2c(C(=O)c3ccccc3)c(O)c(O)cc2c(O)c1-c1c(C)cc2c(C(=O)c3ccccc3)c(O)c(O)cc2c1O [Compound VII, (1,1′,6,6′,7,7′-hexahydroxy-3,3′-dimethyl-2,2′-binaphthyl-5,5′-diyl)bis(phenylmethanone)]",+,,,"EC50 (H460 cell line; 72 hours, ATP-LITE): 310 nM"
"Cc1cc2c(C(=O)c3cccc4ccccc34)c(O)c(O)cc2c(O)c1-c1c(C)cc2c(C(=O)c3cccc4ccccc34)c(O)c(O)cc2c1O [Compound VIII, (1,1′,6,6′,7,7′-hexahydroxy-3,3′-dimethyl-2,2′-binaphthyl-5,5′-diyl)bis(naphthalen-1-ylmethanone)]",+,62,Low,"EC50 (RS11846 cell line; [5]): 4.2 µM; EC50 (GST-Mcl-1): 2200 nM; Microsomal Stability (T = 1 hr) [2]: 52%; EC50 (GST-BCL-2): 1900 nM; Kd (BCL-XL [4]): 2750 nM; EC50 (GST-BCL-XL ΔTM protein; Table 3, read-out: EC50 FPA BCL-XL): 160 nM"
"Cc1cc2c(C(=O)c3ccc(C(C)(C)C)cc3)c(O)c(O)cc2c(O)c1-c1c(C)cc2c(C(=O)c3ccc(C(C)(C)C)cc3)c(O)c(O)cc2c1O [Compound X, (1,1′,6,6′,7,7′-hexahydroxy-3,3′-dimethyl-2,2′-binaphthyl-5,5′-diyl)bis((4-tert-butylphenyl)methanone)]",−,,,
"Cc1cc2c(C(=O)c3ccc(C(F)(F)F)cc3)c(O)c(O)cc2c(O)c1-c1c(C)cc2c(C(=O)c3ccc(C(F)(F)F)cc3)c(O)c(O)cc2c1O [Compound XI, (1,1′,6,6′,7,7′-hexahydroxy-3,3′-dimethyl-2,2′-binaphthyl-5,5′-diyl)bis((4-(trifluoromethyl)phenyl)methanone)]",+,,,EC50 (RS11846 cell line; [5]): 3.8 µM
"Cc1ccc(CC(=O)c2c(O)c(O)cc3c(O)c(-c4c(C)cc5c(C(=O)Cc6ccc(C)cc6)c(O)c(O)cc5c4O)c(C)cc23)cc1 [Compound XII, 1,1′-(1,1′,6,6′,7,7′-hexahydroxy-3,3′-dimethyl-2,2′-binaphthyl-5,5′-diyl)bis(2-p-tolylethanone)]",,72,Low and Medium,"EC50 (RS11846 cell line; read-out: RS11846 EC50 (Annexin V- and propidium iodide assay); 1-2 days): 3 µM; EC50 (GST-Mcl-1): 1100 nM; EC50 (GST-BCL-2): 780 nM; EC50 (PC3ML cells): 2500 nM; times more potent than apogossypol, H460 EC50 (H460 cell line): 4-5 times"
"Cc1cc2c(C(=O)Cc3cccc(Br)c3)c(O)c(O)cc2c(O)c1-c1c(C)cc2c(C(=O)Cc3cccc(Br)c3)c(O)c(O)cc2c1O [Compound XIII, 1,1′-(1,1′,6,6′,7,7′-hexahydroxy-3,3′-dimethyl-2,2′-binaphthyl-5,5′-diyl)bis(2-(3-bromophenyl)ethanone)]",++,,,
"Cc1cc2c(C(=O)CC3CCCCC3)c(O)c(O)cc2c(O)c1-c1c(C)cc2c(C(=O)CC3CCCCC3)c(O)c(O)cc2c1O [Compound XV, 1,1′-(1,1′,6,6′,7,7′-hexahydroxy-3,3′-dimethyl-2,2′-binaphthyl-5,5′-diyl)bis(2-cyclohexylethanone)]",++,,,
"Cc1cc2c(C(=O)CCc3ccc(F)cc3)c(O)c(O)cc2c(O)c1-c1c(C)cc2c(C(=O)CCc3ccc(F)cc3)c(O)c(O)cc2c1O [Compound XVI, 1,1′-(1,1′,6,6′,7,7′-hexahydroxy-3,3′-dimethyl-2,2′-binaphthyl-5,5′-diyl)bis(3-(4-fluorophenyl)propan-1-one)]",+,,,
"Cc1cc2c(C(=O)c3nc4ccccc4s3)c(O)c(O)cc2c(O)c1-c1c(C)cc2c(C(=O)c3nc4ccccc4s3)c(O)c(O)cc2c1O [Compound XVII, (1,1′,6,6′,7,7′-hexahydroxy-3,3′-dimethyl-2,2′-binaphthyl-5,5′-diyl)bis(benzo[d]thiazol-2-ylmethanone)]",++,90,Medium,Microsomal Stability (T = 1 hr) [2]: 68%; IC50 (GST-BCL-XL ΔTM protein; read-out: FPA IC50 (BCL-XL)): 390 nM
"Cc1cc2c(C(=O)C(C)(C)C)c(O)c(O)cc2c(O)c1-c1c(C)cc2c(C(=O)C(C)(C)C)c(O)c(O)cc2c1O [Compound XVIII, 1,1′-(1,1′,6,6′,7,7′-hexahydroxy-3,3′-dimethyl-2,2′-binaphthyl-5,5′-diyl)bis(2,2-dimethylpropan-1-one)]",++,90,Medium,Microsomal Stability (T = 1 hr) [2]: 30%; microsomal stability compared to apogossypol [2]: degraded faster than apogossypol
"CCCCC(=O)c1c(O)c(O)cc2c(O)c(-c3c(C)cc4c(C(=O)CCCC)c(O)c(O)cc4c3O)c(C)cc12 [Compound XX, 1,1′-(1,1′,6,6′,7,7′-hexahydroxy-3,3′-dimethyl-2,2′-binaphthyl-5,5′-diyl)dipentan-1-one]",+,,,
